US9062041B2 (Bayer Intellectual Property GmbH, priority 2011, dated 2015)

What was measured:
Assay type in all cases: cell-based
human PGD receptor = molecular target: T1, human PGD receptor (Homo sapiens, UniProt Q13258); assay: cAMP antagonism test on the human prostaglandin D receptor (HTRF cAMP detection); settings: selectivity towards hDP, IC50 measured by cAMP antagonism test
T1 sequence (Q13258 1-359): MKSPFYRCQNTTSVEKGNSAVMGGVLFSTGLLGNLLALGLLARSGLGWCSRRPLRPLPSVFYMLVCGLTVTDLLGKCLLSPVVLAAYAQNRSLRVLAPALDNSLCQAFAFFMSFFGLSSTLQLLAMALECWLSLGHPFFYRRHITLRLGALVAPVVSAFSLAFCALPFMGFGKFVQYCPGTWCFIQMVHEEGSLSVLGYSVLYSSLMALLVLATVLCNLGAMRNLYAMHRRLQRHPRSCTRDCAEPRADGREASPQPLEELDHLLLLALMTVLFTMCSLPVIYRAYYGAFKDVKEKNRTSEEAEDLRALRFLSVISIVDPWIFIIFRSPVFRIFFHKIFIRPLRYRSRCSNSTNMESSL
How it was run: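 HTRF competition read-out (665/620 nm ratio ×10000), where higher FRET means less cAMP, i.e. antagonism. Compounds (0.8 nM–16.5 μM) were preincubated 20 min at RT with cells and cAMP-d2, PGD2 (3× solution, 6 nM) in IBMX-containing PBS added for 30 min at RT, then cells lysed 20 min.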

[1] = molecular target: EP2 subtype of the human PGE2 receptor (Homo sapiens, UniProt P43116); assay: cAMP antagonism test on the human EP2 receptor (HTRF cAMP detection); settings: hEP2 receptor, read-out: Antagonism hEP2 IC50
Sequence of EP2 subtype of the human PGE2 receptor (P43116 whole entry): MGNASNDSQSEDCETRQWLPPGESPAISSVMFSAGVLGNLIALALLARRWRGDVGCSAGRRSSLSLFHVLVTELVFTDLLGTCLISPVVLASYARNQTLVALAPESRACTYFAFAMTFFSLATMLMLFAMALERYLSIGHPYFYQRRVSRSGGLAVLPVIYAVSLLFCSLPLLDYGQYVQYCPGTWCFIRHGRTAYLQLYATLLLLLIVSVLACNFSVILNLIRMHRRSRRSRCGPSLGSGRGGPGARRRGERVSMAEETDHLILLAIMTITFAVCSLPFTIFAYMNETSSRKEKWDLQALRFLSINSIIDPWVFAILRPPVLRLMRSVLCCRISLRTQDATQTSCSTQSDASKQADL
How it was run: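 Read-out is a competitive HTRF for cAMP: lysate cAMP displaces cAMP-d2 from Eu cryptate-labelled antibody, and antagonism raises the 665/620 nm ratio. Compound (0.8 nM–16.5 μM) added to EP2 cells 20 min at RT before 60 min PGE2 challenge (3× stock 1.5 nM) with IBMX, followed by 20 min lysis.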

[2] = molecular target: EP4 subtype of the human PGE2 receptor (Homo sapiens, UniProt P35408); assay: cAMP antagonism test on the human EP4 receptor (HTRF cAMP detection); settings: selectivity towards hEP4, IC50 measured by cAMP antagonism test
Sequence of EP4 subtype of the human PGE2 receptor (P35408 whole entry): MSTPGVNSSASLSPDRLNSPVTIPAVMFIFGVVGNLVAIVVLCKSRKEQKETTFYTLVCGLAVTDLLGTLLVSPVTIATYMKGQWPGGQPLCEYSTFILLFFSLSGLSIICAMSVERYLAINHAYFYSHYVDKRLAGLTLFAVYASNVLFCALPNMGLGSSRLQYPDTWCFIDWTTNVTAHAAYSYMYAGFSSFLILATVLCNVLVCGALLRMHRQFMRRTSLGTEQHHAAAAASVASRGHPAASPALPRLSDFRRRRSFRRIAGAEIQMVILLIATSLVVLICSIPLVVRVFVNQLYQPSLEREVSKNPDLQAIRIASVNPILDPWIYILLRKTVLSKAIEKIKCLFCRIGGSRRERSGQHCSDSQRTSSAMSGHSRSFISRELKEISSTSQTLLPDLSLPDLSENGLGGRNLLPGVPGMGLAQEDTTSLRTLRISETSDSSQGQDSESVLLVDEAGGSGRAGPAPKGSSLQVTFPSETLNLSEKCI
How it was run: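 Competitive HTRF cAMP read-out (cAMP-d2 vs Eu-cryptate anti-cAMP antibody, 665/620 nm ratio) on lysed human EP4 cells. Compound (0.8 nM–16.5 μM) applied 20 min at RT before 60 min PGE2 challenge (3× solution 0.3 nM, IBMX present); 20 min lysis precedes reading.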

Structure (SMILES)	Selectivity hEP2/hDP (human PGD receptor)	IC50 [1]	Selectivity hEP2/hEP4 [2]
COCCNC(=O)c1ccc2nn(CC3CCN(C(=O)c4ccc(Oc5ccc(OC)cc5)cc4)CC3)cc2c1C [Example 18, N-(2-methoxyethyl)-2-({1-[4-(4-methoxy-phenoxy)benzoyl]-piperidin-4-yl}-methyl)-4-methyl-2H-indazol-5-carboxamide]	xxx (xxx > 100)	7.66 nM	xxx (xxx > 100)
COCCNC(=O)c1ccc2nn(CC3CCN(C(=O)c4ccc(Oc5ccccc5)cc4)CC3)cc2c1C [Example 19, N-(2-methoxyethyl)-4-methyl-2-{[1-(4-phenoxybenzoyl)-piperidin-4-yl]-methyl}-2H-indazol-5-carboxamide]	xxx (xxx > 100)	8.57 nM	xxx (xxx > 100)
COCCNC(=O)c1ccc2nn(CC3CCN(C(=O)c4ccc(C5CC5)cc4)CC3)cc2c1C [Example 20, 2-{[1-(4-cyclopropyl-benzoyl)piperidin-4-yl]methyl}-N-(2-methoxyethyl)-4-methyl-2H-indazol-5-carboxamide]	xxx (xxx > 100)	7.33 nM	xxx (xxx > 100)
COCCNC(=O)c1ccc2nn(CC3CCN(C(=O)c4ccc(OC)cc4)CC3)cc2c1C [Example 21, 2-{[1-(4-methoxy-benzoyl)piperidin-4-yl]methyl}-N-(2-methoxyethyl)-4-methyl-2H-indazol-5-carboxamide]	xxx (xxx > 100)	35.8 nM	xxx (xxx > 100)
COCCNC(=O)c1ccc2nn(CC3CCN(C(=O)c4ccc(F)cc4)CC3)cc2c1C [Example 22, 2-{[1-(4-fluoro-benzoyl)piperidin-4-yl]methyl}-N-(2-methoxyethyl)-4-methyl-2H-indazol-5-carboxamide]	xxx (xxx > 100)	30.3 nM	xxx (xxx > 100)
COCCNC(=O)c1ccc2nn(CC3CCN(C(=O)c4ccc(C(F)(F)F)cc4)CC3)cc2c1C [Example 23, N-(2-methoxyethyl)-4-methyl-2-({1-[4-(trifluoromethyl)-benzoyl]piperidin-4-yl}methyl)-2H-indazol-5-carboxamide]	xxx (xxx > 100)	16.1 nM	xxx (xxx > 100)
COCCNC(=O)c1ccc2nn(CC3CCN(C(=O)c4ccccc4OC)CC3)cc2c1C [Example 24, 2-{[1-(2-methoxy-benzoyl)piperidin-4-yl]methyl}-N-(2-methoxyethyl)-4-methyl-2H-indazol-5-carboxamide]	xxx (xxx > 100)	60.1 nM	xxx (xxx > 100)
COCCNC(=O)c1ccc2nn(CC3CCN(C(=O)c4ccc(S(=O)(=O)C(F)(F)F)cc4)CC3)cc2c1C [Example 25, N-(2-methoxyethyl)-4-methyl-2-[(1-{4-[(trifluoromethyl)-sulphonyl]benzoyl}-piperidin-4-yl)-methyl]-2H-indazol-5-carboxamide]	xxx (xxx > 100)	25.2 nM	xxx (xxx > 100)
COCCNC(=O)c1ccc2nn(CC3CCN(C(=O)c4cccc(C(F)(F)F)c4)CC3)cc2c1C [Example 26, N-(2-methoxyethyl)-4-methyl-2-({1-[3-(trifluoromethyl)-benzoyl]piperidin-4-yl}methyl)-2H-indazol-5-carboxamide]	xxx (xxx > 100)	24.2 nM	xxx (xxx > 100)
COCCNC(=O)c1ccc2nn(CC3CCN(C(=O)c4cccc(C)c4)CC3)cc2c1C [Example 27, N-(2-methoxyethyl)-4-methyl-2-{[1-(3-methylbenzoyl)-piperidin-4-yl]-methyl}-2H-indazol-5-carboxamide]	xxx (xxx > 100)	19.3 nM	xxx (xxx > 100)
COCCNC(=O)c1ccc2nn(CC3CCN(C(=O)c4cccc(Cl)c4)CC3)cc2c1C [Example 28, 2-{[1-(3-chloro-benzoyl)piperidin-4-yl]methyl}-N-(2-methoxyethyl)-4-methyl-2H-indazol-5-carboxamide]	xxx (xxx > 100)	33.9 nM	xxx (xxx > 100)
COCCNC(=O)c1ccc2nn(CC3CCN(C(=O)c4cc5ccccc5n4C)CC3)cc2c1C [Example 29, N-(2-methoxyethyl)-4-methyl-2-({1-[(1-methyl-1H-indol-2-yl)carbonyl]-piperidin-4-yl}methyl)-2H-indazol-5-carboxamide]	xxx (xxx > 100)	9.31 nM	xxx (xxx > 100)
COCCNC(=O)c1ccc2nn(CC3CCN(C(=O)c4ccc(Oc5ccc(C(N)=O)cc5)cc4)CC3)cc2c1C [Example 30, 2-({1-[4-(4-carbamoylphenoxy)-benzoyl]piperidin-4-yl}methyl)-N-(2-methoxyethyl)-4-methyl-2H-indazol-5-carboxamide]	xxx (xxx > 100)	64.3 nM	xxx (xxx > 100)
COCCNC(=O)c1ccc2nn(CC3CCN(C(=O)c4ccc(OC5CCCC5)cc4)CC3)cc2c1C [Example 31, 2-({1-[4-(cyclo-pentyloxy)benzoyl]-piperidin-4-yl}-methyl)-N-(2-methoxyethyl)-4-methyl-2H-indazol-5-carboxamide]	xxx (xxx > 100)	3.08 nM	xxx (xxx > 100)
COCCNC(=O)c1ccc2nn(CC3CCN(C(=O)c4ccc(C(F)F)cc4)CC3)cc2c1C [Example 32, 2-({1-[4-(difluoro-methyl)benzoyl]-piperidin-4-yl}-methyl)-N-(2-methoxyethyl)-4-methyl-2H-indazol-5-carboxamide]	xxx (xxx > 100)	10.4 nM	xxx (xxx > 100)
COCCNC(=O)c1ccc2nn(CC3CCN(C(=O)c4ccc(C#N)cc4)CC3)cc2c1C [Example 33, 2-{[1-(4-cyano-benzoyl)piperidin-4-yl]methyl}-N-(2-methoxyethyl)-4-methyl-2H-indazol-5-carboxamide]	xxx (xxx > 100)	34.2 nM	xxx (xxx > 100)
COCCNC(=O)c1ccc2nn(CC3CCN(C(=O)c4ccc(-n5ccnc5)cc4)CC3)cc2c1C [Example 34, 2-({1-[4-(1H-imidazol-1-yl)-benzoyl]piperidin-4-yl}methyl)-N-(2-methoxyethyl)-4-methyl-2H-indazol-5-carboxamide]	xxx (xxx > 100)	134 nM	xxx (xxx > 100)
COCCNC(=O)c1ccc2nn(CC3CCN(C(=O)c4ccc(-c5ncco5)cc4)CC3)cc2c1C [Example 35, N-(2-methoxyethyl)-4-methyl-2-({1-[4-(oxazol-2-yl)-benzoyl]piperidin-4-yl}methyl)-2H-indazol-5-carboxamide]	xxx (xxx > 100)	69.2 nM	xxx (xxx > 100)
COCCNC(=O)c1ccc2nn(CC3CCN(C(=O)c4ccc(-c5cnco5)cc4)CC3)cc2c1C [Example 36, N-(2-methoxyethyl)-4-methyl-2-({1-[4-(oxazol-5-yl)-benzoyl]piperidin-4-yl}methyl)-2H-indazol-5-carboxamide]	xxx (xxx > 100)	61.6 nM	xxx (xxx > 100)
COCCNC(=O)c1ccc2nn(CC3CCN(C(=O)c4ccc(-c5ccno5)cc4)CC3)cc2c1C [Example 37, N-(2-methoxyethyl)-4-methyl-2-({1-[4-(isoxazol-5-yl)-benzoyl]piperidin-4-yl}methyl)-2H-indazol-5-carboxamide]	xxx (xxx > 100)	104 nM	xxx (xxx > 100)
COCCNC(=O)c1ccc2nn(CC3CCN(C(=O)c4ccc(-n5cccn5)cc4)CC3)cc2c1C [Example 38, N-(2-methoxyethyl)-4-methyl-2-({1-[4-(1H-pyrazol-1-yl)-benzoyl]piperidin-4-yl}methyl)-2H-indazol-5-carboxamide]	xxx (xxx > 100)	28.1 nM	xxx (xxx > 100)
COCCNC(=O)c1ccc2nn(CC3CCN(C(=O)c4ccc(-n5cncn5)cc4)CC3)cc2c1C [Example 39, N-(2-methoxyethyl)-4-methyl-2-({1-[4-(1H-1,2,4-triazol-1-yl)benzoyl]piperidin-4-yl}methyl)-2H-indazol-5-carboxamide]	xxx (xxx > 100)	113 nM	xxx (xxx > 100)
